Assay results published in PubChem BioAssay AID330 (DTP/NCI, 2004).
Where “and” joins values, the source holds several entries; their conditions need not be identical. Identical values can stand only once. Toxic doses and inconclusive results are not listed. The calls were made as follows: active = survival T/C of 150% or more; inactive = T/C below 125% in these data.

Test system: P388 leukemia ip, CD2F1 mice, survival T/C
Test: NCI In Vivo Anticancer Drug Screen. Data for tumor model P388 Leukemia (intraperitoneal) in CD2F1 (CDF1) mice
Conditions: endpoint: median survival time, higher = longer survival
Summary of the method: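 Mice carrying the transplanted tumor received test compound or vehicle. Survival was recorded in each group, and the value is the treated-group measurement divided by that of the vehicle-treated control group.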

[1] = dose: 50.0 mg/kg/injection, schedule: Q01DX001 (ip), vehicle: Klucel (hydroxypropylcellulose) (HPC)
[2] = dose: 100.0 mg/kg/injection, schedule: Q01DX001 (ip), vehicle: Klucel (hydroxypropylcellulose) (HPC)
[3] = dose: 25.0 mg/kg/injection, schedule: Q01DX005 (ip), vehicle: Klucel (hydroxypropylcellulose) (HPC)
[4] = dose: 50.0 mg/kg/injection, schedule: Q01DX005 (ip), vehicle: Klucel (hydroxypropylcellulose) (HPC)
[5] = dose: 100.0 mg/kg/injection, schedule: Q01DX005 (ip), vehicle: Klucel (hydroxypropylcellulose) (HPC)
[6] = dose: 200.0 mg/kg/injection, schedule: Q01DX005 (ip), vehicle: Klucel (hydroxypropylcellulose) (HPC)
[7] = dose: 12.5 mg/kg/injection, schedule: Q01DX009 (ip), vehicle: Klucel (hydroxypropylcellulose) (HPC)
[8] = dose: 25.0 mg/kg/injection, schedule: Q01DX009 (ip), vehicle: Klucel (hydroxypropylcellulose) (HPC)
[9] = dose: 100.0 mg/kg/injection, schedule: Q01DX009 (ip), vehicle: Klucel (hydroxypropylcellulose) (HPC)
[10] = dose: 200.0 mg/kg/injection, schedule: Q01DX009 (ip), vehicle: Klucel (hydroxypropylcellulose) (HPC)
[11] = dose: 50.0 mg/kg/injection, schedule: Q01DX009 (ip), vehicle: saline
[12] = dose: 100.0 mg/kg/injection, schedule: Q01DX009 (ip), vehicle: saline
[13] = dose: 200.0 mg/kg/injection, schedule: Q01DX009 (ip), vehicle: saline
[14] = dose: 6.25 mg/kg/injection, schedule: Q01DX009 (ip), vehicle: Klucel (hydroxypropylcellulose) (HPC)

Measured: T/C

C[C@H](C(O)CC(=O)C(C)(C)O)[C@H]1CC[C@@]2(C)[C@@H]3CC[C@H]4C(C)(C)[C@@H](OC5OC(COC6OC(CO)C(O)C(O)C6O)C(O)C(O)C5O)CC[C@]4(C)C3=CC[C@]12C (stereo partly drawn)
inactive: dose: 9.25 mg/kg/injection, schedule: Q01DX005 (ip), vehicle: saline 100 % of control | dose: 18.5 mg/kg/injection, schedule: Q01DX005 (ip), vehicle: saline 100 % of control | dose: 37.0 mg/kg/injection, schedule: Q01DX005 (ip), vehicle: saline 112 % of control | dose: 74.0 mg/kg/injection, schedule: Q01DX005 (ip), vehicle: saline 105 % of control

CNC(=O)OCc1c(Cl)nc2n1CCS2
inactive: dose: 25.0 mg/kg/injection, schedule: Q01DX001 (ip), vehicle: Klucel (hydroxypropylcellulose) (HPC) 109 % of control | [1] 109 % of control | [2] 106 % of control

Oc1c(Cl)cc(Cl)cc1C1CC(c2ccccc2Cl)=NN1c1ccccc1 (stereo not drawn)
inactive: dose: 50.0 mg/kg/injection, schedule: Q01DX009 (ip), vehicle: saline with Tween-80 96 % of control | dose: 100.0 mg/kg/injection, schedule: Q01DX009 (ip), vehicle: saline with Tween-80 95 % of control | dose: 200.0 mg/kg/injection, schedule: Q01DX009 (ip), vehicle: saline with Tween-80 97 % of control

CCCCN(CCCC)C(=O)C(C)O (stereo not drawn)
inactive: [3] 108 % of control | [4] 105 % of control | [5] 110 % of control | [6] 112 % of control

Cc1nc2sccn2c1C=O
inactive: [7] 109 % of control | [8] 114 % of control | dose: 50.0 mg/kg/injection, schedule: Q01DX009 (ip), vehicle: Klucel (hydroxypropylcellulose) (HPC) 114 % of control | [2] 97 % of control

CC(Cc1nc2ccccc2[nH]1)Cc1nc2ccccc2[nH]1
inactive: [3] 100 % of control | [4] 99 % of control | [5] 92 % of control | [6] 91 % of control

CSC(=O)Nc1ccc(C)c(NC(=O)SC)c1
inactive: dose: 50.0 mg/kg/injection, schedule: Q01DX005 (ip), vehicle: saline with Tween-80 94 % of control | dose: 100.0 mg/kg/injection, schedule: Q01DX005 (ip), vehicle: saline with Tween-80 100 % of control | dose: 200.0 mg/kg/injection, schedule: Q01DX005 (ip), vehicle: saline with Tween-80 100 % of control

O=C(CS(=O)(=O)c1ccccc1)c1ccccc1
inactive: [9] 101 % of control | [10] 101 % of control | dose: 400.0 mg/kg/injection, schedule: Q01DX009 (ip), vehicle: Klucel (hydroxypropylcellulose) (HPC) 105 % of control

COC1OCCCO1
inactive: dose: 60.0 mg/kg/injection, schedule: Q01DX005 (ip), vehicle: saline 103 % of control | dose: 120.0 mg/kg/injection, schedule: Q01DX005 (ip), vehicle: saline 104 % of control | dose: 240.0 mg/kg/injection, schedule: Q01DX005 (ip), vehicle: saline 107 % of control

CC(C)(C)c1ccc2c(c1)C(O)(c1ccccc1)C1OC1(C(C)(C)C)C2=O (stereo not drawn)
inactive: [11] 106 % of control | [12] 100 % of control | [13] 91 % of control

Nc1nc2n(O)cc(-c3ccccc3)nc-2c(=O)n1
inactive: dose: 10.0 mg/kg/injection, schedule: Q01DX009 (ip), vehicle: saline with Tween-80 89 % of control | dose: 20.0 mg/kg/injection, schedule: Q01DX009 (ip), vehicle: saline with Tween-80 101 % of control | dose: 40.0 mg/kg/injection, schedule: Q01DX009 (ip), vehicle: saline with Tween-80 92 % of control

CCNC(C)(C)C(SS)c1ccc(C(F)(F)F)cc1 (stereo not drawn)
inactive: dose: 12.5 mg/kg/injection, schedule: Q04DX003 (ip), vehicle: saline with Tween-80 100 % of control | dose: 25.0 mg/kg/injection, schedule: Q04DX003 (ip), vehicle: saline with Tween-80 110 % of control | dose: 50.0 mg/kg/injection, schedule: Q04DX003 (ip), vehicle: saline with Tween-80 110 % of control | dose: 100.0 mg/kg/injection, schedule: Q04DX003 (ip), vehicle: saline with Tween-80 100 % of control | dose: 400.0 mg/kg/injection, schedule: Q04DX003 (ip), vehicle: saline with Tween-80 109 % of control

COP(=O)(Cc1ccccc1O)OC
inactive: [11] 97 % of control | [12] 99 % of control | [13] 96 % of control

CCn1c2ccc(N(C)C)cc2c2cc(N(C)C)ccc21
inactive: dose: 60.0 mg/kg/injection, schedule: Q01DX005 (ip), vehicle: saline with Tween-80 99 % of control | dose: 120.0 mg/kg/injection, schedule: Q01DX005 (ip), vehicle: saline with Tween-80 105 % of control | dose: 240.0 mg/kg/injection, schedule: Q01DX005 (ip), vehicle: saline with Tween-80 102 % of control

CC1CN1C1=C(F)C(=O)C(N2CC2C)=C(F)C1=O (stereo not drawn)
inactive: dose: 1.56 mg/kg/injection, schedule: Q01DX009 (ip), vehicle: Klucel (hydroxypropylcellulose) (HPC) 104 % of control | dose: 3.12 mg/kg/injection, schedule: Q01DX009 (ip), vehicle: Klucel (hydroxypropylcellulose) (HPC) 106 % of control and 110 % of control and 116 % of control | [14] 105 % of control and 123 % of control

CCN(CC)Cc1c(C)[nH]c2ccc3c(c2c1=O)Oc1ccccc1O3
inactive: dose: 100.0 mg/kg/injection, schedule: Q04DX002 (ip), vehicle: Klucel (hydroxypropylcellulose) (HPC) 100 % of control | dose: 200.0 mg/kg/injection, schedule: Q04DX002 (ip), vehicle: Klucel (hydroxypropylcellulose) (HPC) 100 % of control | dose: 400.0 mg/kg/injection, schedule: Q04DX002 (ip), vehicle: Klucel (hydroxypropylcellulose) (HPC) 100 % of control

CNC(=O)Sc1ccc(Cl)cc1
inactive: dose: 50.0 mg/kg/injection, schedule: Q01DX009 (ip), vehicle: suspension in saline 102 % of control | dose: 100.0 mg/kg/injection, schedule: Q01DX009 (ip), vehicle: suspension in saline 105 % of control | dose: 200.0 mg/kg/injection, schedule: Q01DX009 (ip), vehicle: suspension in saline 113 % of control

CC/C(=C(/CC)c1ccc(OCC(=O)N/N=C2\CCC3C4CCc5cc(O)ccc5C4CCC23C)cc1)c1ccc(OCC(=O)N/N=C2/CCC3C4CCc5cc(O)ccc5C4CCC23C)cc1 (stereo not drawn)
inactive: dose: 3.12 mg/kg/injection, schedule: Q01DX001 (ip), vehicle: Klucel (hydroxypropylcellulose) (HPC) 100 % of control | dose: 6.25 mg/kg/injection, schedule: Q01DX001 (ip), vehicle: Klucel (hydroxypropylcellulose) (HPC) 102 % of control | dose: 12.5 mg/kg/injection, schedule: Q01DX001 (ip), vehicle: Klucel (hydroxypropylcellulose) (HPC) 97 % of control | [1] 91 % of control | dose: 200.0 mg/kg/injection, schedule: Q01DX001 (ip), vehicle: Klucel (hydroxypropylcellulose) (HPC) 87 % of control

CC(C)n1c(Cl)c(C(=O)O)c2ccccc21
inactive: dose: 100.0 mg/kg/injection, schedule: Q04DX002 (ip), vehicle: saline with Tween-80 100 % of control | dose: 200.0 mg/kg/injection, schedule: Q04DX002 (ip), vehicle: saline with Tween-80 98 % of control | dose: 400.0 mg/kg/injection, schedule: Q04DX002 (ip), vehicle: saline with Tween-80 100 % of control

CN=C(N)N/N=C(C)/C(C)=C/c1ccccc1
inactive: dose: 25.0 mg/kg/injection, schedule: Q04DX002 (ip), vehicle: saline with Tween-80 104 % of control

CCSC(=S)Nc1nc2ccc(C)cc2s1
inactive: [14] 107 % of control | [7] 89 % of control | [8] 103 % of control

CC1C=CCC(C)(C)C1 (stereo not drawn)
inactive: [9] 101 % of control | dose: 100.0 mg/kg/injection, schedule: Q04DX003 (ip), vehicle: saline 88 % of control | [10] 106 % of control | dose: 200.0 mg/kg/injection, schedule: Q04DX003 (ip), vehicle: saline 96 % of control | dose: 400.0 mg/kg/injection, schedule: Q04DX003 (ip), vehicle: saline 92 % of control

COc1cc2c(cc1O)c[n+](C)c1c3cc(OC)c(OC)cc3ccc21
inactive: dose: 7.8 mg/kg/injection, schedule: Q01DX009 (ip), vehicle: other 107 % of control | dose: 31.3 mg/kg/injection, schedule: Q01DX009 (ip), vehicle: other 122 % of control | dose: 62.5 mg/kg/injection, schedule: Q01DX009 (ip), vehicle: other 120 % of control | dose: 125.0 mg/kg/injection, schedule: Q01DX009 (ip), vehicle: other 120 % of control
